Measurements as given in paper PMC7259601 (PLoS ONE, 2020).

Experiments:
MAO-A = molecular target: T1, MAO-A (Mus musculus, UniProt Q64133); assay: L-5-HTP-induced symptoms test; type: in vivo, CD1 mice
T1 construct: from tissue; host or cells: mouse brain (homogenate ex vivo; living animal in the L-5-HTP test)
T1 sequence (Q64133 1-526): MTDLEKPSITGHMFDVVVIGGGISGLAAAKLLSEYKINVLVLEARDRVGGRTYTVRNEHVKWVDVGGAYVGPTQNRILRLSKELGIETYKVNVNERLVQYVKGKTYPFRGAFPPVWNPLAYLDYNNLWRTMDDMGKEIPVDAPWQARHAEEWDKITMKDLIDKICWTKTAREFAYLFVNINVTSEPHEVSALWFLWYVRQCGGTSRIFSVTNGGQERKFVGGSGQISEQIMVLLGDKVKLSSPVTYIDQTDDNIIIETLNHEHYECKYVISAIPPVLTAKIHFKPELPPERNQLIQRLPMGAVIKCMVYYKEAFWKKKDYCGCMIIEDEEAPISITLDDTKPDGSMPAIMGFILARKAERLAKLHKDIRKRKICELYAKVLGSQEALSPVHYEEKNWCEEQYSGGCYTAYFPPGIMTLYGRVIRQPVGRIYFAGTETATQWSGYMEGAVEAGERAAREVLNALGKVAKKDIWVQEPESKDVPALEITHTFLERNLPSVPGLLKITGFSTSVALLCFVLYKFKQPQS
Protocol: Male C57BL/6 mice (8 weeks of age, 25-30 g) procured from Harlan Interfauna Iberica were housed in the same condition that in MAO-B PEA section. This test was performed essentially as previously described. Test compound was administered p.o. at several dose levels to groups of mice (N = 10/dose) 60 min before an i.p. injection of L-5-HTP (100 mg/kg). This dose of 5-L-HTP produced no effects in control animals. […] Studies were performed in accordance with the institutional guidelines for the care and use of laboratory animals (European Communities Council Directive 86/609/EEC) established by the Ethical Committee for Animal Experimentation at the PRAAL-PCB.
This test was performed essentially as previously described [90](Koe et al., 1983). Test compound was administered p.o. at several dose levels 60 min before an i.p. injection of L-5-HTP. […] One score assigned to each symptom observed per animal, giving a maximal obtainable score of 30 per group of 10 mice.
Behavior was rated as outline above.

[1] = test system: NMDA receptor NR1 subunit hypofunction mice; set-up: method as in PMID 30580376; conditions: cited from earlier work
MAO-B [2] = molecular target: MAO-B (Mus musculus, UniProt Q8BW75); conditions: p.o. gavage, followed by 25 mg/kg PEA
brain MAO-B = molecular target: T2, brain MAO-B (Mus musculus, UniProt Q8BW75); assay: MPTP neurotoxicity model; type: in vivo, C57BL/6 mice; conditions: i.p. 3 mg/kg
T2 construct: from tissue; host or cells: mouse brain (homogenate ex vivo; living animal in the MPTP and PEA tests)

SAMP8 mice = assay: Novel Object Recognition Test (NORT); type: in vivo, mouse; conditions: 3 mg/kg/day (Exp4), p = 0.12
Protocol: Both male and female mice from the senescence accelerated strain SAMP8 and its control SAMR1 of different ages (see Table S3 for details) were used in these studies. Mice were breed in the animal facilities of the Pharmacy Faculty (University of Barcelona), maintained in a at 22 ± 2 °C controlled temperature in a 12 hr light / dark cycle (lights on at 8:00 am; 300 lux/0 lux) with ad libitum access to food (2018 TEKLAD, Harlan) and water. Male mice were housed individually (males) or in groups of 4-5 animals (females) in plastic colony boxes with a sawdust bedding material. […] SAMR1 mice treated with vehicle were included as a control. All drugs were administered via drinking water and diluted in vehicle. Drug concentration was calculated weekly in function of body weight and corrected in function of drinking water consumption. Cognitive function was evaluated by NORT, social behavior was evaluated by RI and anxiety and motor function were evaluated by EPM and OF. When necessary, animals were deeply anesthetized (80 mg/kg sodium pentobarbital) and brain samples (hippocampus, (prefrontal) cortex) were micro-dissected and processed according to the downstream analysis.
The protocol was performed as previously described. Briefly, animals were placed in a 90°- two-arm maze. Mice were habituated to the apparatus for 10 min during 3 consecutive days. On day 4, two identical novel objects (A+A or B+B) were placed at the end of each arm and animals performed a 10-min acquisition trial. A 10-min retention trial was carried out 2 hr after the acquisition trial with object A and B. Time exploring the novel (NO) and the familiar object (FO) was measured and a discrimination Index (DI) was defined as (NO-FO)/(NO+FO). In some experiments, a more restrictive threshold was applied and animals exploring less than 5 sec (NO+FO) were excluded from the analysis (Table S3).
Novel Object Recognition Test (NORT): Time exploring the novel (NO) and the familiar object (FO) was measured and a discrimination Index (DI) was defined as (NO-FO)/(NO+FO). In some experiments, a more restrictive threshold was applied and animals exploring less that 5 sec (NO+FO) were excluded from the analysis (Table S3). Open Field (OF): Locomotor activity was analyzed by video-tracking over the captured images using SMART® (v 2.5.21 (rat) or v3.0 (mice), PanLab, SLU, Spain).

MAO-B [3] = conditions: 3 mg/kg/day; cited from earlier work
SETD1 +/- mice = test system: SETD1 +/- mice; set-up: method as in PMID 31606247; conditions: cited from earlier work
KDM1A-E8a KO mice = test system: KDM1A-E8a KO mice; set-up: method as in PMID 26976584; conditions: cited from earlier work

T2 sequence (Q8BW75 whole entry): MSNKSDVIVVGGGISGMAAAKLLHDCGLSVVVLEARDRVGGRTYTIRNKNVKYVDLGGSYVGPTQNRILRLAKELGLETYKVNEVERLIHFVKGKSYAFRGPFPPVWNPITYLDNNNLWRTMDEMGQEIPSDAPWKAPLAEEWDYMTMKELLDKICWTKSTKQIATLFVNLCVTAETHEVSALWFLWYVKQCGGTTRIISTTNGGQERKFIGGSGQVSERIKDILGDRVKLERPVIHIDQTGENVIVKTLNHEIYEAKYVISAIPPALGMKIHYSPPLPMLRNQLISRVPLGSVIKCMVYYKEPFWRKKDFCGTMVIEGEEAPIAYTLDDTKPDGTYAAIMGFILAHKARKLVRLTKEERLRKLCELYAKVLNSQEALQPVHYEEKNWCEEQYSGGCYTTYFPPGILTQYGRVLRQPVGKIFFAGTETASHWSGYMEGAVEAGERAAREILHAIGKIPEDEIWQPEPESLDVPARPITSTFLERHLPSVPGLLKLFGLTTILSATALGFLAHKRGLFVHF
Sequence of MAO-B (Mus musculus, UniProt Q8BW75) (Q8BW75 whole entry): as above

Work on `C#CCN(C)[C@H](C)Cc1ccccc1` [SLG, selegiline] yielded an ED50 (MAO-A; mouse, read-out: ED50 potentiation of L-5-HTP-induced symptoms) of 42.2 mg/kg.
For `Cc1nnc(NC(=O)c2cccc([C@@H]3C[C@H]3NC3CCC3)c2)s1` [T-448], the learning function [1] is given as “improved the learning function”.
With `N[C@@H]1C[C@H]1c1ccccc1` (racemic) [TCP, tranylcypromine] the “ED50 potentiation of PEA-induced symptoms” value (MAO-B [2]) was 1.1 mg/kg and the “ED50 potentiation of L-5-HTP-induced symptoms” value (MAO-A; p.o. gavage, followed by 100 mg/kg L-5-HTP i.p.) was 1.4 mg/kg.
In the case of `C#CCN[C@@H]1CCc2ccccc21` [RSG, rasagiline], the “protection against the MPTP insult” value (brain MAO-B) is listed as “full protection”, the NORT discrimination capacity (SAMP8 mice) is listed as “tendency for improvement without reaching significance” and the “MAO-B inhibition at the dose used” value (MAO-B [3]) is listed as “complete MAO-B inhibition”.
In the case of `N[C@H]1CC[C@H](N[C@@H]2C[C@H]2c2ccccc2)CC1` [Iadademstat], the “cortical synaptic plasticity deficit and working memory” value (SETD1 +/- mice) is given as “reversed cortical synaptic plasticity deficit and the working memory”.
In the case of `O=C(CCCCCCC(=O)Nc1ccccc1)NO` [SAHA], the “deficient stress response and low anxiety phenotype” value (KDM1A-E8a KO mice) is given as “rescued”.
